We go through 4 molecules from paper PMC3880646 (Journal of medicinal chemistry, 2013).

Assay [1] relates to SJSA-1 xenograft model. The settings on record: cited from earlier work; for tumor growth in SJSA-1 xenograft model: high oral doses (200–300 mg/kg) ref 8, 21.
Assay [2] deals with p53 activation in SJSA-1 osteosarcoma cell line. Briefly: Western blot analysis of p53 activation and PARP cleavage in SJSA-1 cells. It counts as cell-based, human. The settings on record: for full-length PARP (apoptosis induction) / p53 activation (accumulation of p53, MDM2 and p21): 24 h. (In western blotting, separated proteins are transferred to a membrane and probed.)
Assay [3] relates to p53 activation and apoptosis in SJSA-1 xenograft tumor tissues. Kind of assay: Pharmacodynamics study in SJSA-1 xenograft tumor tissues.
Where [4] appears, read: single oral dose 100 mg/kg, 24 h.

Take `CC(C)(C)C[C@H]1N[C@@H](C(=O)NCC[C@H](O)CO)[C@H](c2cccc(Cl)c2)[C@@]12C(=O)Nc1cc(Cl)c(F)cc12` [Compound 1]: in assay [1], the complete tumor regression entry is “failed to achieve complete tumor regression” and the “tumor growth in SJSA-1 xenograft model” value is given as “inhibited tumor growth”.

Regarding `COc1ccc(C2=N[C@@H](c3ccc(Cl)cc3)[C@@H](c3ccc(Cl)cc3)N2C(=O)N2CCNC(=O)C2)c(OC(C)C)c1` [Nutlin-3a, reference compound], in assay [2] (Western blot), the “full-length PARP (apoptosis induction)” value was “dose-dependently diminished”; the “p53 activation (accumulation of p53, MDM2 and p21)” value is “effectively and dose-dependently activate p53”.

Turning to `CC(C)(C)C[C@@H]1N[C@@H](C(=O)NCC[C@H](O)CO)[C@H](c2cccc(Cl)c2F)[C@]12C(=O)Nc1cc(Cl)ccc12` [Compound 2], in assay [2] (Western blot), the “full-length PARP (apoptosis induction)” value is “dose-dependently diminished”; the “p53 activation (accumulation of p53, MDM2 and p21)” value was “effectively and dose-dependently activate p53”. Further, in assay [1], the complete tumor regression result was “failed to achieve complete tumor regression” and the “tumor growth in SJSA-1 xenograft model” value was “inhibited tumor growth”.

On to `CC(C)(C)C[C@@H]1N[C@@H](C(=O)N[C@H]2C[C@@](C)(O)C2)[C@H](c2cccc(Cl)c2F)[C@]12C(=O)Nc1cc(Cl)ccc12` [Compound 9], for which, in assay [2], the “times more potent than 2 in p53 activation” value is “at least 3 times” and the “times more potent than Nutlin-3a in p53 activation” value is on record as 10 times. Besides, in assay [2] (Western blot), the “full-length PARP (apoptosis induction)” value is “dose-dependently diminished”; the “p53 activation (accumulation of p53, MDM2 and p21)” value is “effectively and dose-dependently activate p53”; the “lowest concentration activating p53 (clear accumulation of p21 and p53)” value worked out at 30 nM. Besides, the “cleavage of PARP and caspase-3 in tumor tissue” value in assay [3] (single oral dose 100 mg/kg, 1, 3 and 6 h) was “minimal”. In addition, the “p53, p21 and MDM2 protein levels in tumor tissue” value in assay [3] (single oral dose 100 mg/kg, 3 h and 6 h) is listed as “robust upregulation”. In assay [3] (setting [4]), the “cleavage of PARP and caspase-3 in tumor tissue” value was “very clear”; the “p53, p21 and MDM2 protein levels in tumor tissue” value is “significantly diminished”.
